# Like-named read-outs stand apart in the source and are kept apart here.
# Key:
# [1] = test system: HL-60(TB); experiment: NCI-60 SRB screen: leukemia HL-60(TB); assay type: cell-based; details: Homo sapiens, 48 h; HL-60(TB); single dose 10 µM; read-out: Percentage Cell Growth
# [2] = test system: 60 human tumor cell lines; experiment: cells
# [3] = test system: Rat Liver ER Neutral α-Glucosidase; experiment: Endoplasmic reticulum α-glucosidase activity assay; assay type: biochemical
# Text: Betulinic acid inhibits yeast α-glucosidase activity and interferes with N-linked glycan modifications to cell-surface intercellular adhesion molecule-1 (ICAM-1) in human lung carcinoma A549 cells in a similar manner to castanospermine, an inhibitor of endoplasmic reticulum α-glucosidases I and II [66]. […] Taken together, these considerations prompted us to evaluate a series of lupanes with amide function or polyamine chain 11, 12, 16, 18, and 22–26 for α-glucosidase inhibition. Initially, they were screened against α-glucosidase of S. cerevisiae as an accessible and high-throughput model. Confirmatory experiments were performed on isolated rough endoplasmic reticulum vesicles from rat liver, which contain neutral α-glucosidases I and II in a membrane-bound form.
# Endoplasmic reticulum was isolated from hepatocytes of decapitated male Sprague-Dawley rats, which were starved overnight and sacrificed the next morning. All experiments were approved by Volgograd regional ethic committee. The whole procedure was performed at 4 °C. In brief, a fresh tissue sample from an animal was washed twice with 10 mL of PBS to remove residual blood. The tissue was placed on a paper towel in order to absorb excess liquid and blood clots, if present. It was cut further into small pieces (1.5–2 cm) and washed once more. […] Homogenate was centrifuged at 1000× g for 10 min at 4 °C. After removal of the floating lipid layer by aspiration, supernatant was separated and centrifuged at 12,000× g for 15 min. at 4 °C. The supernatant fraction, which is the post mitochondrial fraction (PMF), was used for isolation of rough endoplasmic reticulum (RER) enriched microsomes by precipitation with 8 mM CaCl2 added dropwise. The final concentration of CaCl2 was 7 mM. Resulting sample was centrifuged at 8000 g for 10 min. at 4 °C. The supernatant was discarded, and the pellet was suspended in isotonic extraction buffer (0.3 mL of buffer for each g of original tissue). The suspension was homogenized completely to afford RER enriched microsomes. In a 96-well flat transparent plate 25 µL of the isolated RER microsomes were incubated with 50 µL of test compounds in 67 mM PBS (pH 6.8) at 37 °C for 10 min. Then, p-nitrophenyl-α-D-glucopyranoside (Sigma #N1377, St. Louis, MO, USA) was added to 1 mM final concentration and increase in absorbance was recorded for 42 min at 405 nm wavelength with Infinite M200 PRO microplate reader (Tecan, Austria). Concentration of RER microsomes was adjusted to achieve an increase in optical density of ~0.2 in control samples after 30 min. of incubation. Test compounds were prepared as described above for the yeast α-glucosidase assay.
# [4] = test system: ACHN; experiment: NCI-60 SRB screen: renal cancer ACHN; assay type: cell-based, human; details: single dose 10 µM
# [5] = test system: MDA-MB-231/ATCC; experiment: NCI-60 SRB screen: breast cancer MDA-MB-231/ATCC; assay type: cell-based; details: Homo sapiens, 48 h; MDA-MB-231/ATCC; single dose 10 µM; read-out: Percentage Cell Growth
# [6] = test system: MCF7; experiment: NCI-60 SRB screen: breast cancer MCF7; assay type: cell-based; details: Homo sapiens, 48 h; MCF7; single dose 10 µM; read-out: Percentage Cell Growth
# [7] = test system: MOLT-4; experiment: NCI-60 SRB screen: leukemia MOLT-4; assay type: cell-based; details: Homo sapiens, 48 h; MOLT-4; single dose 10 µM; read-out: Percentage Cell Growth
# [8] = test system: CAKI-1; experiment: NCI-60 SRB screen: renal cancer CAKI-1; assay type: cell-based, human; details: CAKI-1; single dose 10 µM
# [9] = test system: SW-620; experiment: NCI-60 SRB screen: colon cancer SW-620; assay type: cell-based; details: Homo sapiens, 48 h; SW-620; single dose 10 µM; read-out: Percentage Cell Growth
# [10] = test system: CCRF-CEM; experiment: NCI-60 SRB screen: leukemia CCRF-CEM; assay type: cell-based; details: Homo sapiens, 48 h, single dose 10 µM, read-out: Percentage Cell Growth
# [11] = test system: HCT-116; experiment: NCI-60 SRB screen: colon cancer HCT-116; assay type: cell-based; details: Homo sapiens, 48 h; HCT-116; single dose 10 µM; read-out: Percentage Cell Growth
# [12] = test system: RPMI-8226; experiment: NCI-60 SRB screen: leukemia RPMI-8226; assay type: cell-based; details: Homo sapiens, 48 h; RPMI-8226; single dose 10 µM; read-out: Percentage Cell Growth
# [13] = test system: SNB-75; experiment: NCI-60 SRB screen: CNS cancer SNB-75; assay type: cell-based, human; details: SNB-75; single dose 10 µM
# [14] = test system: SF-295; experiment: NCI-60 SRB screen: CNS cancer SF-295; assay type: cell-based, human; details: SF-295; single dose 10 µM
# [15] = test system: SK-MEL-5; experiment: NCI-60 SRB screen: melanoma SK-MEL-5; assay type: cell-based, human; details: SK-MEL-5; single dose 10 µM
# [16] = test system: HOP-92; experiment: NCI-60 SRB screen: non-small cell lung cancer HOP-92; assay type: cell-based, human; details: HOP-92; single dose 10 µM
# [17] = test system: NCI-H460; experiment: NCI-60 SRB screen: non-small cell lung cancer NCI-H460; assay type: cell-based; details: Homo sapiens, 48 h; NCI-H460; single dose 10 µM; read-out: Percentage Cell Growth
# [18] = test system: PC-3; experiment: NCI-60 SRB screen: prostate cancer PC-3; assay type: cell-based, human; details: PC-3; single dose 10 µM
# [19] = test system: UO-31; experiment: NCI-60 SRB screen: renal cancer UO-31; assay type: cell-based, human; details: UO-31; single dose 10 µM
# [20] = test system: U251; experiment: NCI-60 SRB screen: CNS cancer U251; assay type: cell-based; details: Homo sapiens, U-251, 48 h; U251; single dose 10 µM; read-out: Percentage Cell Growth
# [21] = test system: HT29; experiment: NCI-60 SRB screen: colon cancer HT29; assay type: cell-based; details: Homo sapiens, HT-29, 48 h; HT29; single dose 10 µM; read-out: Percentage Cell Growth
# [22] = test system: T-47D; experiment: NCI-60 SRB screen: breast cancer T-47D; assay type: cell-based, human; details: T-47D; single dose 10 µM
smiles,measurement,setting,value
C=C(C)[C@@H]1CC[C@]2(C(N)=O)CC[C@]3(C)[C@H](CC[C@@H]4[C@@]5(C)CCC(=O)C(C)(C)[C@@H]5CC[C@]43C)[C@@H]12 [Compound 9],activity at 10 µM,[1],25.9%
same,activity at 10 µM,"[2]; read-out: Mean Growth, %",72%
same,activity at 10 µM,"[2]; read-out: Range of Growth, %",25.9 to 115%
C=C(C)[C@@H]1CC[C@]2(C(=O)N3CCNCC3)CC[C@]3(C)[C@H](CC[C@@H]4[C@@]5(C)CCC(=O)C(C)(C)[C@@H]5CC[C@]43C)[C@@H]12 [Compound 20],activity at 10 µM,"[2]; read-out: Mean Growth, %",101%
same,activity at 10 µM,"[2]; read-out: Range of Growth, %",87.8 to 111%
C=C(C)[C@@H]1CC[C@]2(C(=O)NN(CCN(CCNC(=O)OC(C)(C)C)C(=O)OC(C)(C)C)C(=O)OC(C)(C)C)CC[C@]3(C)[C@H](CC[C@@H]4[C@@]5(C)CCC(=O)C(C)(C)[C@@H]5CC[C@]43C)[C@@H]12 [Compound 15],activity at 10 µM,"[2]; read-out: Mean Growth, %",90.1%
same,activity at 10 µM,"[2]; read-out: Range of Growth, %",56.8 to 114%
"C[C@H]1O[C@H](O[C@H]2[C@H](O)[C@@H](O)[C@@H](O[C@H]3[C@H](O)[C@@H](O)C(O)O[C@@H]3CO)O[C@@H]2CO)[C@H](O)[C@@H](O)[C@@H]1N[C@H]1C=C(CO)[C@@H](O)[C@H](O)[C@H]1O (stereo partly drawn) [Acarbose, reference compound]","Rat Liver ER Neutral α-Glucosidase Inhibition, m ± SD",[3]; 10 μM,5.68 ± 4.68%
same,"Rat Liver ER Neutral α-Glucosidase Inhibition, m ± SD",[3]; 100 μM,24.09 ± 6.48%
same,"Rat Liver ER Neutral α-Glucosidase Inhibition, m ± SD",[3]; 1 mM,74.55 ± 3.76%
C=C(C)[C@@H]1CC[C@]2(C(=O)NCCCCCCN(CCCN)CCCN)CC[C@]3(C)[C@H](CC[C@@H]4[C@@]5(C)CCC(=O)C(C)(C)[C@@H]5CC[C@]43C)[C@@H]12 [Compound 13],activity at 10 µM,"[2]; read-out: Mean Growth, %",105%
same,activity at 10 µM,"[2]; read-out: Range of Growth, %",85.8 to 118%
C=C(C)[C@@H]1CC[C@]2(C(=O)NCCN(CCNC(=O)OC(C)(C)C)C(=O)OC(C)(C)C)CC[C@]3(C)[C@H](CC[C@@H]4[C@@]5(C)CCC(=O)C(C)(C)[C@@H]5CC[C@]43C)[C@@H]12 [Compound 14],Percentage Cell Growth,[4],23.51%
same,activity at 10 µM,[5],-33.8%
same,activity at 10 µM,[6],22.2%
same,activity at 10 µM,[7],11.7%
same,Percentage Cell Growth,[8],18.57%
same,activity at 10 µM,[9],28.8%
same,activity at 10 µM,[10],14.9%
same,activity at 10 µM,[11],17.5%
same,activity at 10 µM,[12],22.2%
same,Percentage Cell Growth,[13],23.86%
same,Percentage Cell Growth,[14],31.97%
same,Percentage Cell Growth,[15],−8.44%
same,Percentage Cell Growth,[16],8.07%
same,activity at 10 µM,[17],20.6%
same,Percentage Cell Growth,[18],19.12%
same,Percentage Cell Growth,[19],17.41%
same,activity at 10 µM,[1],-14.3%
same,activity at 10 µM,[20],27.9%
same,activity at 10 µM,"[2]; read-out: Mean Growth, %",36.6%
same,activity at 10 µM,[21],23.7%
same,Percentage Cell Growth,[22],28.02%

# Reference: PMC7587962, “Evaluation of Cytotoxicity and α-Glucosidase Inhibitory Activity of Amide and Polyamino-Derivatives of Lupane Triterpenoids” (Molecules, 2020)
